Experimental data as given in publication PMC8350192 (Heliyon, 2021).

How the values were obtained:
[1] = target: T1, Porcine Pancreas Lipase (PPL) (Sus scrofa, UniProt P00591); assay: Inhibition of lipase activity assay in vitro; format: biochemical; conditions: for inhibition at 6.25 µg/mL / inhibition at 12.5 µg/mL / inhibition at 25 µg/mL / inhibition at 50 µg/mL / inhibition at 100 µg/mL / inhibition at 200 µg/mL: read-out: Inhibition Percentage (%)
T1 sequence (P00591 1-450): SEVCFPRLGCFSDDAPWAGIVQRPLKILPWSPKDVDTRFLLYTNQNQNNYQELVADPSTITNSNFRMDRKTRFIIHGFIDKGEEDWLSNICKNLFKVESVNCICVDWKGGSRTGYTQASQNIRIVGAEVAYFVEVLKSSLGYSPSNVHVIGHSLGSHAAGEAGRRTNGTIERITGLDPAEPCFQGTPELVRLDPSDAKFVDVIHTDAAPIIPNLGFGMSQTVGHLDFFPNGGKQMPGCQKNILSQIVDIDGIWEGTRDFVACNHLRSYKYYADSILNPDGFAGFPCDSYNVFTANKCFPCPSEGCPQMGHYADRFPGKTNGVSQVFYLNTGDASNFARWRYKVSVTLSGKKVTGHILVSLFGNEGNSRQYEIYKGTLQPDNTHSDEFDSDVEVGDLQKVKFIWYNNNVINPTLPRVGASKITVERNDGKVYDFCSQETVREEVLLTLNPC

[2] = test system: gastrointestinal and pancreatic lipases; conditions: ref Guercioloni, 1997; Bellinger and Peikin, 2002; Othman et al., 2021; cited from earlier work

SMILES	IC50 [1] [µM]	inhibition at 6.25 µg/mL [1] [%]	inhibition at 12.5 µg/mL [1] [%]	inhibition at 25 µg/mL [1] [%]	inhibition at 50 µg/mL [1] [%]	inhibition at 100 µg/mL [1] [%]	inhibition at 200 µg/mL [1] [%]	prevention of absorption of dietary fat [2]
Cn1c(=O)c2c(ncn2C)n(C)c1=O [Compound 2, caffeine]	80.3	34	38.6	64.6	76.2	81.4	83.9	
O=C(/C=C/c1ccc(O)c(O)c1)O[C@@H]1C[C@](O)(C(=O)O)C[C@@H](O)[C@H]1O [Compound 3, Chlorogenic acid]	33.6	29.4	59.2	64.2	77.6	86.7	89.6	
CCCCCCCCCCC[C@@H](C[C@@H]1OC(=O)[C@H]1CCCCCC)OC(=O)[C@H](CC(C)C)NC=O [Orlistat]		50.6	52.4	55.6	77.3	89.4	93.3	approximately 30%
